In publication PMC6937156, “The nature of the ligand’s side chain interacting with the S1'-subsite of metallocarboxypeptidase T (from Thermoactinomyces vulgaris) determines the geometry of the tetrahedral transition complex” (PLoS ONE, 2019):

Molecular target: T1, carboxypeptidase T (CPT) (Thermoactinomyces vulgaris, UniProt P29068)
T1 construct: mature enzyme; one molecule in asymmetric unit
Experiment: inhibition of tripeptide hydrolysis, integral kinetic curves at […] nm
Assay type: biochemical

| Ki [µM] | Compound |
| --- | --- |
| 340 | N=C(N)NCCC[C@H](NS(N)(=O)=O)C(=O)O [SArg, N-sulfamoyl-L-arginine] |
| 3090 | NS(=O)(=O)N[C@@H](CCC(=O)O)C(=O)O [SGlu, N-(aminosulfonyl)-L-glutamic acid] |
| 8.94 | CC(C)C[C@H](NS(N)(=O)=O)C(=O)O [SLeu, N-(aminosulfonyl)-L-leucine] |
| 35.1 | NS(=O)(=O)N[C@@H](Cc1ccccc1)C(=O)O [SPhe, N-sulfamoyl-L-phenylalanine] |
